Measured values as given in EP0159881A2, “23-C-substituted mycaminosyl tylonolide” (ZAIDAN HOJIN BISEIBUTSU KAGAKU KENKYU KAI, priority 1984, dated 1985).
Converted amounts (≈) assume the structure as drawn. Where two headings read alike, the source gives them in different places.

Assays:
Test in all cases: minimum inhibitory concentration (MIC), antimicrobial activity
Format in all cases: cell-based
B. Subtilis NRRL B-558 = test system: B. Subtilis NRRL B-558
Description: (§1) Concerning the antimicrobial activity of the compounds of this invention of the formula (I), minimum effective inhibitory concentrations (MIC) of the compounds are shown in the following Table.

Kl. pnueroniae PCI-602 = test system: Kl. pnueroniae PCI-602
Description: as §1

M. luteus PCI 1001 = test system: M. luteus PCI 1001
Description: as §1

Pseud. aeruginosa A3 = test system: Pseud. aeruginosa A3
Description: as §1

Sal.entiritidis 1891 = test system: Sal.entiritidis 1891
Description: as §1

Staph. aureus Smith = test system: Staph. aureus Smith
Description: as §1

[1] = Bacillus subtilis, NRRLB558, read-out: MIC
[2] = Micrococcus luteus, PCI1001, read-out: MIC
[3] = Pseudomonas aeruginosa, A3, Pseud. aeruginosa A3, read-out: MIC
[4] = Staphylococcus aureus, read-out: MIC

Q: Which MIC (B. Subtilis NRRL B-558; [1]) does the source give for `C=CCC(O)C1/C=C(C)/C=C/C(=O)C(C)CC(CC=O)C(OC2OC(C)C(O)C(N(C)C)C2O)C(C)C(O)CC(=O)OC1CC` (single isomer, unassigned) [8"F, 23-C-(2-propenyl)mycaminosyl tylonolide] here?
A: 0.39 µg/mL (≈ 0.611 µM)

Q: What about the MIC (Kl. pnueroniae PCI-602; read-out: MIC) of the same compound?
A: 3.12 µg/mL (≈ 4.89 µM)

Q: And the MIC (M. luteus PCI 1001; [2])?
A: < 0.2 µg/mL

Q: What about the MIC (Pseud. aeruginosa A3; [3]) of the same compound?
A: 6.25 µg/mL (≈ 9.8 µM)

Q: And the MIC (Sal.entiritidis 1891; read-out: MIC)?
A: 3.12 µg/mL (≈ 4.89 µM)

Q: What about the MIC (Staph. aureus Smith; [4]) of the same compound?
A: < 0.2 µg/mL

Q: With “23-C-methylmycaminosyl tylonolide diethylacetal [2(2)]” as the compound, how does the MIC (B. Subtilis NRRL B-558) read?
A: 0.78 µg/mL

Q: And the MIC (Kl. pnueroniae PCI-602)?
A: 3.12 µg/mL

Q: And the MIC (M. luteus PCI 1001)?
A: <0.2 µg/mL

Q: What about the MIC (Pseud. aeruginosa A3; Pseud. aeruginosa A3) of the same compound?
A: 12.5 µg/mL

Q: What about the MIC (Sal.entiritidis 1891) of the same compound?
A: 3.12 µg/mL

Q: And the MIC (Staph. aureus Smith)?
A: 1.56 µg/mL

Q: Which results are given for `C=CC(O)C1/C=C(C)/C=C/C(=O)C(C)CC(CC=O)C(OC2OC(C)CC(N(C)C)C2O)C(C)C(O)CC(=O)OC1CC` (single isomer, unassigned) [10"F, 4'-deoxy-23-C-vinylmycaminosyl tylonolide]?
A: MIC (B. Subtilis NRRL B-558; [1]): 0.39 µg/mL (≈ 0.642 µM); MIC (Kl. pnueroniae PCI-602; read-out: MIC): 3.12 µg/mL (≈ 5.13 µM); MIC (M. luteus PCI 1001; [2]): < 0.2 µg/mL; MIC (Sal.entiritidis 1891; read-out: MIC): 3.12 µg/mL (≈ 5.13 µM); MIC (Staph. aureus Smith; [4]): 0.78 µg/mL (≈ 1.28 µM)

Q: Which MIC (B. Subtilis NRRL B-558) does the source give for `CC[C@H]1OC(=O)C[C@@H](O)[C@H](C)[C@@H](O[C@@H]2O[C@H](C)[C@@H](O)[C@H](N(C)C)[C@H]2O)[C@@H](CC=O)C[C@@H](C)C(=O)/C=C/C(C)=C/[C@@H]1CO` [MT, mycaminosyl tylonolide] here?
A: 3.12 µg/mL (≈ 5.22 µM)

Q: What about the MIC (Kl. pnueroniae PCI-602) of the same compound?
A: 3.12 µg/mL (≈ 5.22 µM)

Q: What about the MIC (M. luteus PCI 1001) of the same compound?
A: <0.2 µg/mL

Q: What about the MIC (Pseud. aeruginosa A3; Pseud. aeruginosa A3) of the same compound?
A: 25 µg/mL (≈ 41.8 µM)

Q: What about the MIC (Sal.entiritidis 1891) of the same compound?
A: 3.12 µg/mL (≈ 5.22 µM)

Q: What about the MIC (Staph. aureus Smith) of the same compound?
A: 1.56 µg/mL (≈ 2.61 µM)

Q: `C#CC(O)C1C=C(C)C=CC(=O)C(C)CC(CC=O)C(OC2OC(C)C(O)C(N(C)C)C2O)C(C)C(O)CC(=O)OC1CC` (centres unmarked) [11"F, 23-C-ethinylmycaminosyl tylonolide] was tested. Which MIC (B. Subtilis NRRL B-558) did it give?
A: 3.12 µg/mL (≈ 5.02 µM)

Q: And the MIC (Kl. pnueroniae PCI-602)?
A: 3.12 µg/mL (≈ 5.02 µM)

Q: And the MIC (M. luteus PCI 1001)?
A: <0.2 µg/mL

Q: What about the MIC (Pseud. aeruginosa A3; Pseud. aeruginosa A3) of the same compound?
A: 6.25 µg/mL (≈ 10.1 µM)

Q: And the MIC (Sal.entiritidis 1891)?
A: 3.12 µg/mL (≈ 5.02 µM)

Q: And the MIC (Staph. aureus Smith)?
A: 1.56 µg/mL (≈ 2.51 µM)

Q: How did the MIC (B. Subtilis NRRL B-558; [1]) turn out when `CCC1OC(=O)CC(O)C(C)C(OC2OC(C)CC(N(C)C)C2O)C(CC=O)CC(C)C(=O)/C=C/C(C)=C/C1C(C)O` (single isomer, unassigned) [Example 5(2), 4'-deoxy-23-C-methylmycaminosyl tylonolide] was run?
A: 0.39 µg/mL (≈ 0.655 µM)

Q: What about the MIC (Kl. pnueroniae PCI-602; read-out: MIC) of the same compound?
A: 1.56 µg/mL (≈ 2.62 µM)

Q: And the MIC (M. luteus PCI 1001; [2])?
A: < 0.2 µg/mL

Q: And the MIC (Pseud. aeruginosa A3; [3])?
A: 25 µg/mL (≈ 42 µM)

Q: And the MIC (Sal.entiritidis 1891; read-out: MIC)?
A: 3.12 µg/mL (≈ 5.24 µM)

Q: And the MIC (Staph. aureus Smith; [4])?
A: 0.39 µg/mL (≈ 0.655 µM)

Q: With `C#CC(O)C1/C=C(C)/C=C/C(=O)C(C)CC(CC=O)C(OC2OC(C)CC(N(C)C)C2O)C(C)C(O)CC(=O)OC1CC` (single isomer, unassigned) [12"F, 4'-deoxy-23-C-ethinylmycaminosyl tylonolide] as the compound, how does the MIC (B. Subtilis NRRL B-558; [1]) read?
A: 0.78 µg/mL (≈ 1.29 µM)

Q: What about the MIC (Kl. pnueroniae PCI-602; read-out: MIC) of the same compound?
A: 1.56 µg/mL (≈ 2.58 µM)

Q: And the MIC (M. luteus PCI 1001; [2])?
A: < 0.2 µg/mL

Q: What about the MIC (Pseud. aeruginosa A3; [3]) of the same compound?
A: 3.12 µg/mL (≈ 5.15 µM)

Q: What about the MIC (Sal.entiritidis 1891; read-out: MIC) of the same compound?
A: 3.12 µg/mL (≈ 5.15 µM)

Q: And the MIC (Staph. aureus Smith; [4])?
A: 0.78 µg/mL (≈ 1.29 µM)

Q: How did the MIC (B. Subtilis NRRL B-558; [1]) turn out when `CCC(O)C1/C=C(C)/C=C/C(=O)C(C)CC(CC=O)C(OC2OC(C)C(O)C(N(C)C)C2O)C(C)C(O)CC(=O)OC1CC` (single isomer, unassigned) [4(2), 23-C-ethylmycaminosyl tylonolide] was run?
A: 0.39 µg/mL (≈ 0.623 µM)

Q: What about the MIC (Kl. pnueroniae PCI-602; read-out: MIC) of the same compound?
A: 6.25 µg/mL (≈ 9.99 µM)

Q: And the MIC (M. luteus PCI 1001; [2])?
A: < 0.2 µg/mL

Q: What about the MIC (Pseud. aeruginosa A3; [3]) of the same compound?
A: 6.25 µg/mL (≈ 9.99 µM)

Q: What about the MIC (Sal.entiritidis 1891; read-out: MIC) of the same compound?
A: 3.12 µg/mL (≈ 4.99 µM)

Q: And the MIC (Staph. aureus Smith; [4])?
A: 0.78 µg/mL (≈ 1.25 µM)

Q: What does the source list for `CCC1OC(=O)CC(O)C(C)C(OC2OC(C)CC(N(C)C)C2O)C(CC=O)CC(C)C(=O)/C=C/C(C)=C/C1C(C)O` (single isomer, unassigned) [Example 6, 4'-deoxy-23-C-methymycaminosyl tylonolide]?
A: MIC (B. Subtilis NRRL B-558): 0.39 µg/mL (≈ 0.655 µM); MIC (Kl. pnueroniae PCI-602): 3.12 µg/mL (≈ 5.24 µM); MIC (M. luteus PCI 1001): <0.2 µg/mL; MIC (Pseud. aeruginosa A3; Pseud. aeruginosa A3): 12.5 µg/mL (≈ 21 µM); MIC (Sal.entiritidis 1891): 3.12 µg/mL (≈ 5.24 µM); MIC (Staph. aureus Smith): 0.39 µg/mL (≈ 0.655 µM)

Q: With `CCC1OC(=O)CC(O)C(C)C(OC2OC(C)C(O)C(N(C)C)C2O)C(CC=O)CC(C)C(=O)/C=C/C(C)=C/C1C(C)O` (single isomer, unassigned) [1(3), 23-C-methylmycaminosyl tylonolide] as the compound, how does the MIC (B. Subtilis NRRL B-558; [1]) read?
A: 0.78 µg/mL (≈ 1.27 µM)

Q: And the MIC (Kl. pnueroniae PCI-602; read-out: MIC)?
A: 3.12 µg/mL (≈ 5.1 µM)

Q: What about the MIC (M. luteus PCI 1001; [2]) of the same compound?
A: < 0.2 µg/mL

Q: What about the MIC (Pseud. aeruginosa A3; [3]) of the same compound?
A: 12.5 µg/mL (≈ 20.4 µM)

Q: What about the MIC (Sal.entiritidis 1891; read-out: MIC) of the same compound?
A: 3.12 µg/mL (≈ 5.1 µM)

Q: What about the MIC (Staph. aureus Smith; [4]) of the same compound?
A: 1.56 µg/mL (≈ 2.55 µM)

Q: With `CC[C@H]1OC(=O)C[C@@H](O)[C@H](C)[C@@H](O[C@@H]2O[C@H](C)C[C@H](N(C)C)[C@H]2O)[C@@H](CC=O)C[C@@H](C)C(=O)/C=C/C(C)=C/[C@@H]1CO` [DT, 4'deoxy mycaminosyl/ tylonolide, reference compound] as the compound, how does the MIC (B. Subtilis NRRL B-558) read?
A: 1.56 µg/mL (≈ 2.68 µM)

Q: What about the MIC (Kl. pnueroniae PCI-602) of the same compound?
A: 1.56 µg/mL (≈ 2.68 µM)

Q: What about the MIC (M. luteus PCI 1001) of the same compound?
A: <0.2 µg/mL

Q: And the MIC (Pseud. aeruginosa A3; Pseud. aeruginosa A3)?
A: 12.5 µg/mL (≈ 21.5 µM)

Q: And the MIC (Sal.entiritidis 1891)?
A: 1.56 µg/mL (≈ 2.68 µM)

Q: And the MIC (Staph. aureus Smith)?
A: 0.39 µg/mL (≈ 0.67 µM)
